Measurements taken from patent US10408836B2 (priority 2013, dated 2019).

Assays:
[1] = system: NanA of S. pneumoniae; assay type: biochemical; conditions: pH 7
[2] = system: NA of influenza; assay type: biochemical; conditions: pH 7
[3] = molecular target: A/Brisbane/10/07-Like (H3N2/07-S) neuraminidase (Influenza A virus, UniProt A8W8R2); assay type: biochemical; conditions: pH 7, 25000 µM
[4] = molecular target: B/Brisbane/60/08 (Vict/06-S) neuraminidase (Influenza B virus, UniProt C0LT34); assay: biochemical; conditions: pH 7, read-out: % of max NA act. + EDTA (pH)
[5] = molecular target: B/Florida/04/06 (Yama/08-S) neuraminidase (Influenza B virus, UniProt J7JZU5); assay: biochemical; conditions: pH 7, read-out: % of max NA act. + EDTA (pH)
[6] = molecular target: A/North Carolina/39/09 (H1N1pdm/09-R) neuraminidase (Influenza A virus, UniProt C3W6G3); conditions: pH 6, 25000 µM
[7] = molecular target: A/Brisbane/59/07-Like (H1N1/07-R) neuraminidase (Influenza A virus, UniProt D5F1R0); conditions: pH 6, 25000 µM
[8] = molecular target: A/Florida/21/08 (H1N1/08-R) neuraminidase (Influenza A virus, UniProt G3LYR2); conditions: pH 6, 25000 µM
[9] = molecular target: Recombinant N1 protein A/California/04/09 (N1pdm/09-R) (Influenza A virus (H1N1), UniProt C3W5S3); conditions: pH 6, 25000 µM
[10] = molecular target: A/Texas/12/07 (H3N2/07-R) neuraminidase (Influenza A virus, UniProt D1FVK3)
[11] = molecular target: B/Memphis/20/96 (Vict/96-R) neuraminidase (Influenza B virus, UniProt C7FPS7); conditions: pH 7, 25000 µM
[12] = molecular target: Parainfluenza virus Type 2 NA (Human parainfluenza 2 virus, UniProt P25465); conditions: pH 5
[13] = molecular target: S. pneumoniae ATCC 6305 (Strep 6) NanA (Streptococcus pneumoniae, UniProt P62575); conditions: pH 7
[14] = molecular target: S. pneumoniae ATCC 49619 (Strep 4) NanA (Streptococcus pneumoniae, UniProt P62575); conditions: pH 7
[15] = molecular target: A/California/07/09 (H1N1pdm/09-S) neuraminidase (Influenza A virus, UniProt C3W6G3); assay: biochemical; conditions: pH 6, read-out: % of max NA act. + EDTA (pH)
[16] = molecular target: Recombinant N1 protein A/California/04/09 (N1pdm/09-S) (Influenza A virus (H1N1), UniProt C3W5S3); assay: biochemical; conditions: pH 6, read-out: % of max NA act. + EDTA (pH)
[17] = molecular target: Recombinant N1 protein A/Anhui/01/05 (N1/05-S) (Influenza A virus, UniProt D0PQ82); assay: biochemical; conditions: pH 6, read-out: % of max NA act. + EDTA (pH)
[18] = system: influenza virus; assay type: binding
[19] = system: H3N2/07-R; assay type: binding, influenza A

## O=S(=O)(O)CCCNC1CCCCC1 [CAPS, N-cyclohexyl-3-aminopropanesulfonic acid]
[1]
  NanA inhibition by sulfonic acid-containing buffer: susceptibility to CHES and CAPS inhibition

## O=S(=O)(O)CCNC1CCCCC1 [CHES, N-cyclohexyl-2-aminoethanesulfonic acid]
[2]
  NA enzymatic activity of influenza in presence of buffer: substantially resistant
[1]
  NanA activity of S. pneumoniae in presence of buffer: severely reduced
  NanA inhibition by sulfonic acid-containing buffer: susceptibility to CHES and CAPS inhibition

## O=C(O)CN(CCN(CC(=O)O)CC(=O)O)CC(=O)O [EDTA, ethylenediaminetetraacetic acid]
[3]
  % of max NA act. + EDTA (pH): 50%
[4]
  activity at 25000 µM: 92%
[5]
  activity at 25000 µM: 88%
[6]
  % of max NA act. + EDTA (pH): 63%
[7]
  % of max NA act. + EDTA (pH): 54%
[8]
  % of max NA act. + EDTA (pH): 36%
[9]
  % of max NA act. + EDTA (pH): 94%
[10]; pH 7, 25000 µM
  % of max NA act. + EDTA (pH): 61%
[11]
  % of max NA act. + EDTA (pH): 25%
[12]
  % of max NA act. + EDTA (pH): 27%
[13]
  % of max NA act. + EDTA (pH): 112%
[14]
  % of max NA act. + EDTA (pH): 108%
[15]
  activity at 25000 µM: 44%
[16]
  activity at 25000 µM: 94%
[17]
  activity at 25000 µM: 43%

## CC(=O)N[C@H]1[C@H]([C@H](O)[C@H](O)CO)OC(C(=O)O)=C[C@@H]1N=C(N)N [Zan, Zanamivir]
[10]
  IC50: 2.6 nM

## MBL: mannose-binding lectin, recombinant host protein used as capturing agent
[18]
  limit of detection: virus dilution at which virus is captured: 270-450 fold dilution
  viral capture, ranking of receptors: best capturing factor among all mannose binding receptors
[19]
  limit of detection: virus dilution: 450 fold dilution

B1: Fetuin: highly sialylated protein isolated from bovine serum, used as capturing agent (protein, UniProt P12763 19-359, looked up)
Alpha-2-HS-glycoprotein: IPLDPVAGYKEPACDDPDTEQAALAAVDYINKHLPRGYKHTLNQIDSVKVWPRRPTGEVYDIEIDTLETTCHVLDPTPLANCSVRQQTQHAVEGDCDIHVLKQDGQFSVLFTKCDSSPDSAEDVRKLCPDCPLLAPLNDSRVVHAVEVALATFNAESNGSYLQLVEISRAQFVPLPVSVSVEFAVAATDCIAKEVVDPTKCNLLAEKQYGFCKGSVIQKALGGEDVRVTCTLFQTQPVIPQPQPDGAEAEAPSAVPDAAGPTPSAAGPPVASVVVGPSVVAVPLPLHRAHYDLRHTFSGVASVESSSGEAFHVGKTPIVGQPSIPGGPVRLCPGRIRYFKI
[18]
  limit of detection: virus dilution at which virus is captured: 150-450 fold dilution
[19]
  limit of detection: virus dilution: 30 fold dilution
